The text below walks through data of US20200031778A1, “NOVEL 5-SUBSTITUTED IMIDAZOLYLMETHYL DERIVATIVES” (Bayer CropScience Aktiengesellschaft, priority 2016, published 2020).

The test system of one series is Septoria tritici. Put plainly: Example IX-B: in vivo preventive test on Septoria tritici (leaf spot on wheat). The settings on record: Zymoseptoria tritici, 576 h; compounds of formula IX; 500 ppm of active ingredient; wheat plants, preventive spray; evaluated 24 days after inoculation; read-out: efficacy. Here is the method: Example IX-B: In Vivo Preventive Test on Septoria Tritici (Leaf Spot on Wheat)
The active ingredients are made soluble and homogenized in a mixture of Dimethyl sulfoxide/Acetone/Tween® 80 and then diluted in water to the desired concentration.
The young plants of wheat are treated by spraying the active ingredient prepared as described above. Control plants are treated only with an aqueous solution of Acetone/Dimethyl sulfoxide/Tween® 80.
After 24 hours, the plants are contaminated by spraying the leaves with an aqueous suspension of Septoria tritici spores. The contaminated wheat plants are incubated for 72 hours at 18° C. and at 100% relative humidity and then for 21 days at 20° C. and at 90% relative humidity.
The test is evaluated 24 days after the inoculation. 0% means an efficacy which corresponds to that of the control plants while an efficacy of 100% means that no disease is observed.
Consider `CC(=O)c1cncn1CC(=O)c1ccc(Oc2ccc(C(F)(F)F)nc2)nc1C(F)(F)F` [IX-133], for which the pest or weed control at 500 ppm was in the range of 90 to 100%.

On to `O=C(Cn1cncc1Cl)c1ncc(Oc2ccccc2)cc1Cl` [IX-01], for which the pest or weed control at 500 ppm was in the range of 80 to 89%.

Regarding `N#Cc1cncn1CC(=O)c1ccccc1F` [IX-113], the pest or weed control at 500 ppm was in the range of 70 to 79%.

For the compound `COc1cc(F)ccc1C(=O)Cn1cncc1Cl` [IX-11], the pest or weed control at 500 ppm is 90 to 100%.

In the case of `O=C(Cn1cncc1Br)c1ccc(Oc2ccc(C(F)(F)F)cc2)c(Cl)c1` [IX-03], the pest or weed control at 500 ppm was in the range of 90 to 100%.

Regarding `N#Cc1cncn1CC(=O)c1ccc(Oc2ccc(Br)nc2)cc1Cl` [IX-76], the pest or weed control at 500 ppm was in the range of 90 to 100%.

Consider `N#Cc1cncn1CC(=O)c1ccc(C(F)(F)F)cc1` [IX-117], for which the pest or weed control at 500 ppm lay in the range of 90 to 100%.

Consider `N#Cc1cncn1CC(=O)c1ccc(Oc2c(F)cc(Cl)cc2F)nc1C(F)(F)F` [IX-124], for which the pest or weed control at 500 ppm lay within 90 to 100%.

System in the next series: not listed separately
Put plainly: Log P by HPLC on reversed phase columns (EEC directive 79/831 Annex V.A8; methods [a], [b], [c]).
Conditions: not given
Format: physicochemical. In a few lines:
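Reversed-phase HPLC with LC-UV detection, 10→95% acetonitrile linear gradient; aqueous eluent 0.1% formic acid [a], 0.001 M ammonium acetate, neutral [b], or 0.1% phosphoric acid [c]. Calibrated against C3–C16 alkan-2-ones of known Log P by retention-time linear interpolation; multiple values within a method separated by "+".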
On to `N#Cc1cncn1CC(O)(c1ccc(Cl)cc1)C1(Cl)CC1` (stereo not shown) [I-232], for which the LogP is 2.49^[a].

Consider `Cc1c(Cl)ccc(C(O)(Cn2cncc2C#N)C2(F)CC2)c1F` (stereo not shown) [I-685], for which the LogP was 2.63^[a].

With `N#Cc1cncn1CC(O)c1ccc(Oc2ccc(S(F)(F)(F)(F)F)cc2)nc1C(F)(F)F` (stereo not shown) [I-146], the LogP is 3.35^[a].

Regarding `N#Cc1cncn1CC(O)(c1ccc(Cl)cc1F)C1CCCC1` (stereo not shown) [I-458], the LogP was 3.12^[a].

For `CCCCC(O)(Cn1cncc1C#N)c1ccc(F)cc1F` (stereo not shown) [I-262], the LogP was 2.73^[a].

Regarding `N#Cc1cncn1CC(O)(c1c(F)cc(F)cc1Br)C1(F)CC1` (stereo not shown) [I-547], the LogP is 2.27^[a].

As to `COC(Cn1cncc1C#N)c1ccc(Oc2ccc(Br)cc2)cc1C(F)(F)F` (stereo not shown) [I-88], the LogP was 4.25^[a].

Regarding `Cc1ccc(Oc2ccc(C(C)(O)Cn3cncc3Cl)c(Cl)c2)cc1` (stereo not shown) [I-156], the LogP is 3.13^[a].

Turning to `OC(Cn1cncc1Br)c1ccc(Oc2ccc(Cl)cc2)cc1Cl` (stereo not shown) [I-14], the LogP is 2.60^[a].

Turning to `CC(C)CCCC(O)(Cn1cncc1C#N)C1(Cl)CC1` (stereo not shown) [I-599], the LogP is 3.33^[a].

As to `CC(O)(Cn1cncc1F)c1ccc(Oc2ccc(Cl)cc2)cc1C(F)(F)F` (stereo not shown) [I-211], the LogP is 2.64^[a].

Consider `N#Cc1cncn1CC(O)(c1c(F)ccc(F)c1Cl)C1(F)CC1` (stereo not shown) [I-567], for which the LogP is 2.15^[a].

On to `CC(C)CCCC(O)(Cn1cncc1C#N)C1(F)CC1` (stereo not shown) [I-671], for which the LogP is 2.82^[a].

As to `N#Cc1cncn1CC(O)(c1ccc(Br)c(Cl)c1Cl)C1(F)CC1` (stereo not shown) [I-681], the LogP is 2.80^[a].

With `N#Cc1cncn1CC(O)(c1cc(Cl)cc(Br)c1)C1(F)CC1` (stereo not shown) [I-536], the LogP is 2.76^[a].

As for `CC(C)(C)CC(O)(Cn1cncc1C#N)c1ccc(Br)cc1Cl` (stereo not shown) [I-334], the LogP was 2.83^[a].

Regarding `N#Cc1cncn1CC(O)(c1cc(F)ccc1Cl)C1(F)CC1` (stereo not shown) [I-439], the LogP is 2.16^[a].

Consider `CC(O)(Cn1cncc1Cl)c1ccc(Oc2ccc(Cl)cc2)cc1Br` (stereo not shown) [I-171], for which the LogP is 2.82^[a].

As to `N#Cc1cncn1CC(O)(c1cc(F)c(Cl)cc1F)C1(F)CC1` (stereo not shown) [I-580], the LogP was 2.45^[a].

Consider `N#Cc1cncn1CC(O)(c1ccccc1C(F)(F)F)C1(Cl)CC1` (stereo not shown) [I-344], for which the LogP was 2.35^[a].

As to `N#Cc1cncn1CC(O)(c1cccc(F)c1F)C1(F)CC1` (stereo not shown) [I-524], the LogP was 2.02^[a].

Take `CC(O)(Cn1cncc1F)c1cnc(Oc2ccc(Cl)cc2F)cc1C(F)(F)F` (stereo not shown) [I-229]: the LogP is 2.43^[a].

In the case of `N#Cc1cncn1CC(O)(c1ccc(F)cc1F)C1CCCCC1` (stereo not shown) [I-481], the LogP was 3.05^[a].

With `OC(Cn1cncc1Cl)c1ccc(Oc2ccc(Cl)cn2)cc1C(F)(F)F` (stereo not shown) [I-65], the LogP was 2.21^[a].

`COC(Cn1cncc1C#N)c1ccc(Oc2ccc(Br)cc2)cc1F` (stereo not shown) [I-55]: the LogP was 3.79^[a].

Consider `N#Cc1cncn1CC(O)c1ccc(Oc2ccc(Cl)cc2F)nc1C(F)(F)F` (stereo not shown) [I-136], for which the LogP was 2.94^[a].

As to `CCOC(Cn1cncc1Br)c1ccc(Oc2ccc(Cl)cc2)cc1C(F)(F)F` (stereo not shown) [I-33], the LogP was 4.16^[a].

In the case of `CCC(=O)OC(Cn1cncc1F)c1ccc(Oc2ccc(Cl)cc2)cc1C(F)(F)F` (stereo not shown) [I-105], the LogP was 3.54^[a].

On to `N#Cc1cncn1CC(O)(c1ccc(F)cc1F)C1CC1` (stereo not shown) [I-410], for which the LogP is 2.18^[a].

Take `CC(C)(C)C(O)(Cn1cncc1C#N)c1cc(F)c(Cl)c(Cl)c1` (stereo not shown) [I-545]: the LogP was 3.31^[a].

Consider `CC(O)(Cn1cncc1C#N)c1cnc(Oc2ccc(C(F)(F)F)cc2)cc1Cl` (stereo not shown) [I-254], for which the LogP was 3.21^[a].

For `N#Cc1cncn1CC(O)c1ccccc1Br` (stereo not shown) [I-140], the LogP is 1.62^[a].

In the case of `N#Cc1cncn1CC(O)(CC1CC1)c1ccc(Cl)cc1F` (stereo not shown) [I-442], the LogP was 2.75^[a].

As for `N#Cc1cncn1CC(O)(CCCC1CCCCC1)CC1CC1` (stereo not shown) [I-666], the LogP was 3.91^[a].

Regarding `N#Cc1cncn1CC(O)(c1cc(Cl)cc(Cl)c1Cl)C1(Cl)CC1` (stereo not shown) [I-614], the LogP is 2.80^[a].

As for `CC(O)(Cn1cncc1F)c1ccc(Oc2ccc(S(F)(F)(F)(F)F)cc2)nc1C(F)(F)F` (stereo not shown) [I-297], the LogP is 2.62^[a].

Consider `N#Cc1cncn1CC(O)(C#CC1CCCC1)C1(F)CC1` (stereo not shown) [I-453], for which the LogP was 2.30^[a].

Consider `OC(Cn1cncc1Cl)c1ccc(Oc2ccc(F)cc2)cc1Cl` (stereo not shown) [I-03], for which the LogP was 2.28^[a].

For the compound `N#Cc1cncn1CC(O)(c1ccc(F)cc1F)C1(Cl)CC1` (stereo not shown) [I-355], the LogP was 2.28^[a].

As to `N#Cc1cncn1CC(O)(C#CC1CCCC1)CC1CC1` (stereo not shown) [I-452], the LogP was 2.62^[a].

As for `CC(O)(Cn1cncc1C#N)c1cnc(Oc2ccc(Cl)cc2)cc1C(F)(F)F` (stereo not shown) [I-249], the LogP was 3.44^[a].

Consider `CCCCC(O)(Cn1cncc1C#N)c1ccc(C(F)(F)F)cc1Cl` (stereo not shown) [I-266], for which the LogP is 3.65^[a].

As for `N#Cc1cncn1CC(O)(CC1CC1)c1cc(F)c(Cl)c(Cl)c1` (stereo not shown) [I-530], the LogP is 2.97^[a].

As for `N#Cc1cncn1CC(O)(CC1CC1)c1c(F)cc(F)cc1F` (stereo not shown) [I-511], the LogP is 2.34^[a].

On to `CCCC(O)(Cn1cncc1C#N)c1ccc(Br)cc1Cl` (stereo not shown) [I-423], for which the LogP is 3.19^[a].

As for `N#Cc1cncn1CC(O)c1ccc(Oc2ccc(Br)nc2)cc1Cl` (stereo not shown) [I-73], the LogP is 2.47^[a].

In the case of `N#Cc1cncn1CC(O)(c1ccc(Br)nc1Cl)C1(F)CC1` (stereo not shown) [I-683], the LogP was 2.01^[a].

In the case of `CCOC(Cn1cncc1Br)c1ccc(Oc2ccc(Cl)cc2)cc1Br` (stereo not shown) [I-56], the LogP is 3.99^[a].

`CC(C)(C)CC(O)(Cn1cncc1C#N)C1(F)CC1` (stereo not shown) [I-374]: the LogP is 2.44^[a].

Regarding `CC(C)(C)C(O)(Cn1cncc1C#N)c1cc(F)c(F)c(F)c1` (stereo not shown) [I-462], the LogP was 2.76^[a].

Turning to `CC(C)(C)C(O)(Cn1cncc1C#N)c1ccc(F)c(Cl)c1` (stereo not shown) [I-455], the LogP was 2.90^[a].

In the case of `Cc1cc(C(O)(Cn2cncc2C#N)C2(F)CC2)c(F)cc1Cl` (stereo not shown) [I-507], the LogP is 2.66^[a].

Turning to `N#Cc1cncn1CC(O)c1ccc(Cl)cc1` (stereo not shown) [I-112], the LogP was 1.53^[a].

For the compound `C[Si](C)(C)CCC(O)(Cn1cncc1C(F)(F)F)C1(Cl)CC1` (stereo not shown) [I-691], the LogP is 4.24^[a].

With `CCCOC(Cn1cncc1C#N)c1ccc(Oc2ccc(Cl)cc2)cc1C(F)(F)F` (stereo not shown) [I-85], the LogP was 4.92^[a].

Regarding `N#Cc1cncn1CC(O)(c1c(F)cccc1F)C1(F)CC1` (stereo not shown) [I-520], the LogP was 1.94^[a].

Take `CC(C)(C)c1ccc(C#CC(O)(Cn2cncc2C#N)C2(F)CC2)cc1` (stereo not shown) [I-372]: the LogP was 3.39^[a].

In the case of `CCCC(O)(Cn1cncc1C#N)c1ccc(Cl)cc1F` (stereo not shown) [I-401], the LogP is 2.78^[a].

In the case of `N#Cc1cncn1CC(O)(CC1CC1)c1ccc(Cl)c(Cl)c1` (stereo not shown) [I-488], the LogP is 2.78^[a].

Take `N#Cc1cncn1CC(O)(CC1CC1)c1ccc(F)c(Br)c1` (stereo not shown) [I-496]: the LogP was 2.56^[a].

With `N#Cc1cncn1CC(O)c1ccccc1Cl` (stereo not shown) [I-138], the LogP was 1.57^[a].

With `OC(Cn1cncc1F)c1ccc(Oc2ccc(C(F)(F)F)nc2)nc1C(F)(F)F` (stereo not shown) [I-142], the LogP was 1.98^[a].

Consider `N#Cc1cncn1CC(O)(c1cc(F)cc(Cl)c1)C1(F)CC1` (stereo not shown) [I-474], for which the LogP was 2.38^[a].

Turning to `N#Cc1cncn1CC(O)(c1ccc(Cl)nc1Br)C1(F)CC1` (stereo not shown) [I-556], the LogP was 1.99^[a].

Staying with this series, now noted: reversed phase HPLC column; method [a], HPLC on reversed phase columns.
Consider `N#Cc1cncn1CC(O)(CCC1CCCCC1)C1(Cl)CC1` (stereo not shown) [I-660, 1-[2-(1-chlorocyclopropyl)-4-cyclohexyl-2-hydroxybutyl]-1H-imidazole-5-carbonitrile], for which the chromatographic logP was 3.79.

The series is the same for the next values; noted with them: reversed phase HPLC column; method [a]: LC-UV, acidic range, 0.1% formic acid in water and acetonitrile as eluent (linear gradient from 10% to 95% acetonitrile).
As for `CC(=O)c1cncn1CC(=O)c1ccc(Oc2ccc(C(F)(F)F)nc2)nc1C(F)(F)F` [IX-133], the chromatographic logP was 2.6.

`O=C(Cn1cncc1Cl)c1ncc(Oc2ccccc2)cc1Cl` [IX-01] showed a chromatographic logP of 2.44.

`N#Cc1cncn1CC(=O)c1ccccc1F` [IX-113] displayed a chromatographic logP of 1.65.

With `COc1cc(F)ccc1C(=O)Cn1cncc1Cl` [IX-11], the chromatographic logP was found to be 1.34.

Consider `O=C(Cn1cncc1Br)c1ccc(Oc2ccc(C(F)(F)F)cc2)c(Cl)c1` [IX-03], for which the chromatographic logP was 3.23.

The compound `N#Cc1cncn1CC(=O)c1ccc(Oc2ccc(Br)nc2)cc1Cl` [IX-76] showed a chromatographic logP of 2.7.

`N#Cc1cncn1CC(=O)c1ccc(C(F)(F)F)cc1` [IX-117] returned a chromatographic logP of 1.99.

As to `N#Cc1cncn1CC(=O)c1ccc(Oc2c(F)cc(Cl)cc2F)nc1C(F)(F)F` [IX-124], the chromatographic logP came to 3.28.

For `O=C(Cn1cncc1Cl)c1ccc(Oc2ccc(Cl)cn2)cc1` [IX-02], the chromatographic logP worked out at 2.12.
